The text below walks through data of patent US20050256051A1, “Nuclear receptor-mediated introduction of a PNA into cell nuclei” (The Population Council, Inc., priority 2001, published 2005).

One may read the solubility as how much of the substance goes into solution per volume.

The nature of data set [1]: Solubility of PNA constructs in culture medium and stock solution. Type of data set: physicochemical. The following applies: cell culture medium (RPMI complete medium); higher concentrations precipitate; read-out: maximum solubility in RPMI complete medium. On the procedure:
Table 1 contains a description of the experimental PNAs used in this study, including their modifications and corresponding abbreviations. In particular, PNA-mycwt is a 17-mer PNA anti-gene for the unique sequence of c-myc, bases 4528-4544, in its II exon (21). […] All the other PNAs listed in Table 1 had solubilities in excess of 500 μM (stock solution described above), far above the 10 μM concentration used in most experiments.

In data set [2] the test system is c-myc gene. In words: MYC protein by Western blot normalized to H2b, LNCaP cells. Type of data set: cell-based, human. The conditions noted are these: for change in MYC: 2 μM, preliminary experiments. As to the method: (§1) Total cellular proteins samples were derived from 10^7 cells solubilized in 200 μl Urea lysis buffer (9M Urea, 50 mM Tris, pH 7.0) with brief sonication at 0° C. as needed. Western blot analysis for MYC expression was performed as described previously (29). Briefly, total cellular proteins were electrophoretically separated using 10% acrylamide, 0.4% (w/v) SDS gels and then transferred to a nitrocellulose membrane (Hybond C-extra, Amersham). The membrane was then cut at a […] molecular weight level (using as reference Kaleidoscope pre-stained standards, BioRad). Both membrane halves were incubated in parallel overnight with a primary antibody (top with anti-myc antibody, 9E10 Calbiochem, San Diego, Calif.; bottom with anti-H2b antibody kindly provided by Dr. M. Romani, IST, Genova, I). The membranes were washed and exposed to a rabbit anti-mouse IgG (Dakopatts, Glostrup, DK) at room temperature for 1 h. MYC and H2b bands were visualized by the incubation of the membrane with alkaline phosphatase-conjugated goat anti-rabbit IgG (Sigma) at room temperature for 2 h followed by exposure to the 5-bromo-4-chloro-3-indolylphosphate/nitro blue tetrazolium substrate developer (BCIP/NBT, Sigma).
(§2) The stained and reassembled Western blot images, from triplicate experiments, were digitally acquired, elaborated in Photoshop, and then quantified using Scion-Image. MYC concentrations were normalized to the matching histone H2b concentrations (a protein that remains constant throughout the treatment described). Therefore MYC concentration is reported as a ratio to an H2b standard. For Western blot analyses, the average error was 14.0% (range 8.3 to 25.1%) in the LNCaP experiments and for those with DU145 averaged 10.2% (range 8.5 to 20.3%).
As shown in Fugure 4A, the amount of MYC protein was evaluated by Western blot analysis of […]. The effects of PNAs on expression of the c-myc gene in LNCaP and DU145 cells were also obtained by immunochemical measurement of the MYC protein content of cell lysates, using data obtained from at least a triplicate run of each set of immunostained Western blots. In each case, the MYC content of the whole cell lysate was compared to that of histone H2b, a protein that remains constant throughout the treatment described. The constancy of H2b made it possible to represent variations in MYC protein concentration normalized to the H2b content in the same lysate.

For data set [3], the system named is c-myc gene. The experiment in a line: MYC protein by Western blot normalized to H2b, DU145 cells. Type of data set: cell-based, human. The following applies: 10 μM. As to the method: as §1, §2
As shown in Fugure 4A, the amount of MYC protein was evaluated by Western blot analysis of total nuclear proteins. […]
On the technique in general: Immunoblotting shows a protein as a band on a membrane.

Data set [4] concerns Burkitt's lymphoma cells. The following applies: 10 μM in the cell medium; cited from earlier work.
For data set [5], the system named is LNCaP cells. The experiment in a line: Cell growth by total cell counts, LNCaP cells. Type of data set: cell-based, human. The conditions noted are these: 10 μM, 72 hours. As to the method:
(§3) Two prostatic carcinoma derived cell lines were used (LNCaP and DU145 cultured in RPMI-1640, 10% charcoal-stripped fetal calf serum). Their features and culture conditions were as previously detailed (26, 27). PNA stock solutions (500 μM in H2O neutralized with NaOH) were added as an aliquot to the culture medium to their final concentration. […] In the gene regulation experiments, PNAmycwt, PNAmycwt-T, PNAmycmut-T, and PNAmycwt-NLS were present at a final 10 μM concentration in the culture medium, for 0, 24, 48, or 72 hours. Cell growth was measured by total cell counts from three replicate flasks (1.3-5.0×10^6 per each 75 cm^2/flask) while cell viability was determined by Trypan blue exclusion. The standard deviation was calculated both for cell growth and viability keeping into account the data from all the experiments (minimum of three each).
(§4) LNCaP and DU145 cells were treated with a 10 μM concentration of PNA constructs in the culture medium (PNA-mycwt-T (Δ), PNA-mycwt, PNA-mycmut, PNA-mycmut-T (●) as negative controls and PNA-mycwt-NLS (▪) as positive control). Cell numbers (FIGS. 3A and C) and viability (FIGS. 3B and D) were estimated, as described above, at increasing times of exposure to different PNA constructs.

Data set [6] deals with DU145 cells. In words: Cell viability by Trypan blue exclusion, DU145 cells. Type of data set: cell-based, human. The following applies: 10 μM, up to 72 h, compared with the about 20% decline seen in LNCaP. As to the method:
as §3, §4

In data set [7] the test system is LNCaP cells. The experiment in a line: Cell viability by Trypan blue exclusion, LNCaP cells. On the procedure: as §3, §4
In data set [8] the test system is DU145 cells. The experiment in a line: Cell growth by total cell counts, DU145 cells. The conditions noted are these: 10 μM, 72 h. Type of data set: cell-based, human. As to the method:
as §3, §4

As to `CCN(CC)c1ccc2c(-c3ccccc3C(=O)NCCCC[C@H](NC(=O)COCCOCCNC(=O)CN(CCNC(=O)CN(CCNC(=O)CN(CCNC(=O)CN(CCNC(=O)CN(CCNC(=O)CN(CCNC(=O)CN(CCNC(=O)CN(CCNC(=O)CN(CCNC(=O)CN(CCNC(=O)CN(CCNC(=O)CN(CCNC(=O)CN(CCNC(=O)CN(CCNC(=O)CN(CCNC(=O)CN(CCNC(=O)CN(CCN)C(=O)Cn3cc(C)c(=O)[nH]c3=O)C(=O)Cn3ccc(N)nc3=O)C(=O)Cn3cnc4c(N)ncnc43)C(=O)Cn3cnc4c(N)ncnc43)C(=O)Cn3ccc(N)nc3=O)C(=O)Cn3cnc4c(=O)[nH]c(N)nc43)C(=O)Cn3cc(C)c(=O)[nH]c3=O)C(=O)Cn3cc(C)c(=O)[nH]c3=O)C(=O)Cn3cnc4c(N)ncnc43)C(=O)Cn3cnc4c(=O)[nH]c(N)nc43)C(=O)Cn3ccc(N)nc3=O)C(=O)Cn3cc(C)c(=O)[nH]c3=O)C(=O)Cn3cc(C)c(=O)[nH]c3=O)C(=O)Cn3ccc(N)nc3=O)C(=O)Cn3cnc4c(N)ncnc43)C(=O)Cn3ccc(N)nc3=O)C(=O)Cn3ccc(N)nc3=O)C(=O)NCC(N)=O)c3ccc(=[N+](CC)CC)cc-3oc2c1` [PNA-mycwt-R], in data set [1], the solubility worked out at 2 µM.

With `CCN(CC)c1ccc2c(-c3ccccc3C(=O)NCCCC[C@H](NC(=O)COCCOCCNC(=O)CN(CCNC(=O)CN(CCNC(=O)CN(CCNC(=O)CN(CCNC(=O)CN(CCNC(=O)CN(CCNC(=O)CN(CCNC(=O)CN(CCNC(=O)CN(CCNC(=O)CN(CCNC(=O)CN(CCNC(=O)CN(CCNC(=O)CN(CCNC(=O)CN(CCNC(=O)CN(CCNC(=O)CN(CCNC(=O)CN(CCNC(=O)COCCOCCNC(=O)CCC(=O)O[C@H]3CC[C@H]4[C@@H]5CC[C@H]6CC(=O)CC[C@]6(C)[C@H]5CC[C@]34C)C(=O)Cn3cc(C)c(=O)[nH]c3=O)C(=O)Cn3ccc(N)nc3=O)C(=O)Cn3cnc4c(N)ncnc43)C(=O)Cn3cnc4c(N)ncnc43)C(=O)Cn3ccc(N)nc3=O)C(=O)Cn3cnc4c(=O)[nH]c(N)nc43)C(=O)Cn3cc(C)c(=O)[nH]c3=O)C(=O)Cn3cc(C)c(=O)[nH]c3=O)C(=O)Cn3cnc4c(N)ncnc43)C(=O)Cn3cnc4c(=O)[nH]c(N)nc43)C(=O)Cn3ccc(N)nc3=O)C(=O)Cn3cc(C)c(=O)[nH]c3=O)C(=O)Cn3cc(C)c(=O)[nH]c3=O)C(=O)Cn3ccc(N)nc3=O)C(=O)Cn3cnc4c(N)ncnc43)C(=O)Cn3ccc(N)nc3=O)C(=O)Cn3ccc(N)nc3=O)C(=O)NCC(N)=O)c3ccc(=[N+](CC)CC)cc-3oc2c1` [PNA-mycwt-TR], the solubility in data set [1] is 2 µM. The “change in MYC” value in data set [2] (24 hours) is reported as −20%; in data set [2] (48 h), −30%; in data set [2] (72 h), −30%.

As for “PNA-mycwt-NLS: c-myc anti-gene PNA (SEQ ID NO:1) linked to SV40 Nuclear Localization Signal peptide PKKKRKV; positive control (TCAACGTTAGCTTCACC; all peptide nucleic acid (PNA); further chemistry not fully specified) [reference compound]”, in data set [3] (72 hours, linear inhibition), the “inhibition of MYC” value was “about 65%”. In data set [4], the cell viability entry is reported as “small decrease” and the “inhibition of MYC expression” value is reported as “maximum inhibition”. In data set [5], the cell growth was 34 % of control. Besides, the “decrease in MYC content” value in data set [2] (10 μM, 72 h, linear decrease) is recorded as 52%. The “effect on cell viability” value in data set [6] was “same magnitude and timing”. Besides, the “decline in cell viability” value in data set [7] (10 µM) was “about 20%”. Also, in data set [8], the “inhibition of cell growth” value is on record as 36%.

With “PNA-mycwt-T: c-myc anti-gene PNA (SEQ ID NO:1) linked to dihydrotestosterone at N-terminal (TCAACGTTAGCTTCACC; all peptide nucleic acid (PNA); dihydrotestosterone conjugated at PNA N-terminus)”, the “effect on MYC protein / expression” value was “unaltered” in data set [3]; “significant and persistent decrease” in data set [2] (10 μM). Besides, the cell growth in data set [5] was 34 % of control. Moreover, the “change in MYC content” value was −63% in data set [2] (10 μM, 24 h); −50% in data set [2] (10 μM, 48 hours); −42% in data set [2] (10 μM, 72 hours). In data set [7] (LNCaP cells, 10 μM, 72 h), the “decline in cell viability” value was “about 20%”.

In the case of “PNA-mycwt: 17-mer c-myc anti-gene PNA, TCA ACG TTA GCT TCA CC (SEQ ID NO:1), vector-free (TCAACGTTAGCTTCACC; all peptide nucleic acid (PNA); further chemistry not fully specified)”, the “effect on MYC protein / expression” value is reported as “unaltered” in data set [3] and “unchanged” in data set [2] (10 μM).
